Assay results: patent US4613618A, “Method for treating disorders of lipid metabolism using benzene sulfonamides” (Choay S.A., priority 1981, dated 1986)

Columns and labels:
[1] = test system: atherosclerosis inducing diet (cholesterol, cholic acid, vitamine D2); experiment: Atherosclerosis inducing diet: biochemical exams; assay type: in vivo, Wistar female rats; design: CHOLESTEROL T, % reduction with respect to the control diet / CHOLESTEROL HDL, % with respect to the control diet / CHOLESTEROL LDL, % reduction with respect to the control diet / TRIGLYCERIDES, % reduction with respect to the control diet: concentration or dose not given beside the values
Method: (§1) In a second experimental series, tha activity of certain products according to the invention were tested on animals which had received an atherosclerosis inducing diet for a long period.
(§2) The test was carried out on Wistar female rats, of weight about 160-180 g.
(§3) The animals received food coming from the National Nutrition plant of Villemoisson-sur-Orge, France, and denoted by the reference UAR AO3, enriched in cholesterol (0.5%) and in cholic acid (0.5%).
(§4) After 15 days of the atherosclerosis inducing diet and whilst maintaining the animals on an atherosclerosis inducing diet, they were given orally for 4 days 250.000 iu/kg of vitamine D2 marketed under the name Sterogyl 25H, in solution in olive oil.
(§5) Then the products under study were administered for 4 weeks, from the end of the administration of the lesion-inducing agent.
At the end of the study, biochemical examinations were carried out on all the animals [total cholesterol, high density lipoprotein (HDL) and cholesterol low density lipoprotein (LDL), and triglycerides].
(§6) Then the pecentage reduction with respect to the diet controls and the score were calculated, that is to say the ratio of the intensity of the activity of the product tested with respect to that of the activity of clofibrate, reckoned as 1.
Table IX gives the detailed results of the biochemical examination:
(a) in % reduction with respect to the control die;
(b) as score, with respect to the reference product, clofibrate, the latter being counted as 1.

atherosclerosis lesions = experiment: Atherosclerosis inducing diet: macroscopic exams (affected animals); assay type: in vivo, Wistar female rats
Method: as §1, §2, §3, §4, §5
(§7) At the end of the study, all the animals still alive were sacrificed, and various organs were removed, particularly the aorta, for histological study of the latter. Two criteria were examined: the number of atherosclerosis areas and the severity of the lesions.
as §6
Table X gives the results of macroscopic examinations:
(a) in % decrease in animals afflicted with lesions;
(b) as score with respect to the reference clofibrate, of which the score was counted as 1.

aorta = experiment: Atherosclerosis inducing diet: microscopic observations (aorta, histology); assay type: in vivo, Wistar female rats; design: HISTOLOGICAL QUOTATION, percentage reduction with respect to the diet controls / NUMBER OF ATHEROSCLEROTIC AREAS, percentage reduction with respect to the diet controls: concentration or dose not given beside the values
Method: as §1, §2, §3, §4, §5, §7
Calculation of the figures was carried out in the following manner:
as regards the severity of the lesions, a quotation ranging from 0 for absence of a lesion to 5+ for the severest lesions was made, and this for each type of alteration concerned (increase of interlamellar spaces, interruption of elastic laminae, thickening of the elastic laminae, calcium deposition, mucopolysaccharide deposition); then all of the results per batch of animals were added;
as regards the number of atherosclerosis areas, by counting the latter and adding all the figures obtained per batch of animals.
as §6
Table XI gives the microscopic results with histological quotation as regards the severity of the lesions, and the number of atherosclerotic areas.

[2] = Toxicity of Compound No. 1 038, oral route, rats; assay type: in vivo; details: rat, in vivo, po
Excerpt: (§8) For Compound No. 1 038, the study of the toxicity has been carried out on rats and on mice to which the product has been administered by the oral route.
(§9) The results (expressed in g/kg) relative to LD50, LD0, and LD100 are gathered in the following table.

rats = experiment: Toxicity of Compound No. 1 038, oral route, rats; assay type: in vivo
Excerpt: as §8, §9

[3] = Toxicity of Compound No. 1 038, oral route, mice; assay type: in vivo; details: mouse, in vivo, po
Excerpt: as §8, §9

mice = experiment: Toxicity of Compound No. 1 038, oral route, mice; assay type: in vivo
Excerpt: as §8, §9

[4] = Subacute toxicity of compound No. 1 038; assay type: in vivo; details: about one month; 150,500 and 1 000 mg/kg
[5] = Toxicity, general statements; details: Compound No. 1 038: rats and mice, oral route; medicaments: general

With `O=C(O)CCCNS(=O)(=O)c1cccc(C(F)(F)F)c1` [Compound No. 1038, (trifluoromethyl-3 benzenesulfonylamino)-4 butyric acid] the “TRIGLYCERIDES, % reduction with respect to the control diet” value ([1]; 4 weeks administration) was -20,69%, the “CHOLESTEROL HDL, % with respect to the control diet” value ([1]; HDL, 4 weeks administration) was “+83,33%” and the “CHOLESTEROL LDL, % reduction with respect to the control diet” value ([1]; LDL, 4 weeks administration) was -58,26%. For the same compound, the “CHOLESTEROL HDL, Score with respect to clofibrate” value ([1]; clofibrate counted as 1) was 0,80, the “CHOLESTEROL LDL, Score with respect to clofibrate” value ([1]; clofibrate counted as 1) was 1,05 and the “CHOLESTEROL T, Score with respect to clofibrate” value ([1]; clofibrate counted as 1) was 1,06. For the same compound, the “TRIGLYCERIDES, Score with respect to clofibrate” value ([1]; clofibrate counted as 1) was 0,86, the “CHOLESTEROL T, % reduction with respect to the control diet” value ([1]; total cholesterol, 4 weeks administration) was -51,88% and the “% decrease in animals afflicted with lesions” value (atherosclerosis lesions) was 33,33%. For the same compound, the “Score with respect to the reference clofibrate (animals afflicted with lesions)” value (atherosclerosis lesions; clofibrate counted as 1) was 1,83, the “AFFECTED ANIMALS %” value (atherosclerosis lesions; macroscopic exams, TEM-diet 100) was 66,67% and the “NUMBER OF ATHEROSCLEROTIC AREAS, percentage reduction with respect to the diet controls” value (aorta) was 78,18%. The “NUMBER OF ATHEROSCLEROTIC AREAS” value (aorta; TEM-diet 160) was 35%, the “HISTOLOGICAL QUOTATION, score with respect to clofibrate” value (aorta; clofibrate counted as 1) was 1,06 and the “NUMBER OF ATHEROSCLEROTIC AREAS, score with respect to clofibrate” value (aorta; clofibrate counted as 1) was 1,42. The “HISTOLOGICAL QUOTATION, percentage reduction with respect to the diet controls” value (aorta; severity of the lesions) was 66,31%, the “HISTOLOGICAL QUOTATION” value (aorta; severity of the lesions, TEM-diet 132) was 44% and the LD50 ([2]; female) was 15500 mg/kg. For the same compound, the LD50 ([2]; male) was 13000 mg/kg, the LD0 (rats; female) was 5 g/kg and the LD100 (rats; female) was greater than 20 g/kg. For the same compound, the LD0 (rats; male) was 5 g/kg, the LD100 (rats; male) was 20 g/kg and the LD50 ([3]; female) was 6600 mg/kg. It also gave an LD50 ([3]; male) of 6000 mg/kg, an LD0 (mice; female) of 5 g/kg and an LD100 (mice; female) of 9 g/kg. For the same compound, the LD0 (mice; male) was 4 g/kg, the LD100 (mice; male) was 9 g/kg and the therapeutic index [4] was “very satisfactory”. For the same compound, the “toxicity (in words)” value [5] was “presents no toxicity”.
